Experimental data as given in patent US20250223281A1, “ANTIDIABETIC COMPOUNDS AND COMPOSITIONS” (REZUBIO PHARMACEUTICALS CO., LTD, priority 2022, published 2025).

Target: T1, GPR40 (Homo sapiens, UniProt O14842)
T1 construct: expressed in transfected cells; host or cells: HEK293 cells stably expressing GPR40 (Hygromycin selection)
Test: IP1 accumulation assay in HEK293 cells stably expressing GPR40
Assay type: cell-based
Outline: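 HEK293 cells stably expressing human GPR40 were incubated with compounds (10-point, 3-fold dilution series) for 2 h at 37 °C, then IP1 was detected by HTRF (665/615 nm ratio). Effect was normalised to DMSO blank and AMG-1638 as 100%, and EC50 was derived from dose curves.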

[1] = IP1 accumulation, HEK293 cells stably expressing GPR40, 2 hours at 37° C., % effect relative to AMG-1638, table of Biological Example 1
[2] = Tables A-1a to A-7b (structure-property relationship), obtained by methods of Biological Example 1
[3] = Table A-8 (additional examples), obtained by methods of Biological Example 1

T1 sequence (O14842 whole entry): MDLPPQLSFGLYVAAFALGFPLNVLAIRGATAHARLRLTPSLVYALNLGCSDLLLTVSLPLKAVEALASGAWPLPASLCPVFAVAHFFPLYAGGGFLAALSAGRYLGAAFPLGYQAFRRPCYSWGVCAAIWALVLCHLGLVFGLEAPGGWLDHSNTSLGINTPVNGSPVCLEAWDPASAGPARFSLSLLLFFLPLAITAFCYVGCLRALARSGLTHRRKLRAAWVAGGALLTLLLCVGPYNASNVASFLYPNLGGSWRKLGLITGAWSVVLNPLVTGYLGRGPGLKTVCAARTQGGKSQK

Structure (SMILES) | EC50 [1] | EC50 [2] | EC50 [3]
COc1ccc(C(=O)N(CC(C)(C)CCn2cc(CCCCCCCCCCCCCCCCC(=O)NCCC[N+](C)(CC(=O)[O-])CC(=O)O)nn2)c2cccc(C)n2)c(N2CCC(COc3cc([C@@H](CC(=O)O)C4CC4)ccn3)CC2)c1 (stereo partly shown) [Example 133] | 0.08 nM | 0.08 nM | –
COc1ccc(F)c(-c2ccc(COc3cccc([C@@H](CC(=O)O)C4CC4)c3)cc2C(C)(C)c2cn(CCCCCCCCCC(=O)NCCN(CCC(=O)NCCN)CCC(=O)NCCN)nn2)c1 [Example 134] | 3600 nM | – | –
COc1ccc(F)c(-c2ccc(COc3cccc([C@@H](CC(=O)O)C4CC4)c3)cc2CC(C)(C)Cc2cn(CCCCCCCCCC(=O)NCCN(CCC(=O)NCCN)CCC(=O)NCCN)nn2)c1 [Example 135] | 3700 nM | > 3700 nM | –
COc1ccc(F)c(-c2ccc(COc3cccc([C@@H](CC(=O)O)C4CC4)c3)cc2OC(C)(C)Cn2cc(CCCCCCCCC(=O)NCCN(CCC(=O)NCCN)CCC(=O)NCCN)nn2)c1 [Example 136] | 1230 nM | – | –
COc1ccc(F)c(-c2ccc(COc3cccc([C@@H](CC(=O)O)C4CC4)c3)cc2OC(C)(C)Cn2cc(CCCCCCCCCCC(=O)NCCN(CCC(=O)NCCN)CCC(=O)NCCN)nn2)c1 [Example 137] | 2600 nM | – | –
COc1ccc(F)c(-c2ccc(COc3cccc([C@@H](CC(=O)O)C4CC4)c3)cc2OC(C)(C)Cn2cc(CCCCCCCCCCCCCCC(=O)NCCN(CCC(=O)NCCN)CCC(=O)NCCN)nn2)c1 [Example 138] | 6.87 nM | – | –
COc1ccc(F)c(-c2ccc(COc3cccc([C@@H](CC(=O)O)C4CC4)c3)cc2OC(C)(C)Cn2cc(CCCCCCCCCCCCCCC(=O)NCC[N+](C)(CCC(=O)NCCN)CCC(=O)NCCN)nn2)c1 [Example 139] | 8.54 nM | – | –
COc1ccc(F)c(-c2ccc(COc3cccc([C@@H](CC(=O)O)C4CC4)c3)cc2OC(C)(C)Cn2cc(CCCCCCCCC(=O)NCC[N+](C)(CCC(=O)NCCN)CCC(=O)NCCN)nn2)c1 [Example 140] | > 10000 nM | – | –
COc1ccc(F)c(-c2ccc(COc3cccc([C@@H](CC(=O)O)C4CC4)c3)cc2OC(C)(C)Cn2cc(CCCCCCCCCCC(=O)NCC[N+](C)(CCC(=O)NCCN)CCC(=O)NCCN)nn2)c1 [Example 141] | 1650 nM | – | –
COc1ccc(F)c(-c2ccc(COc3cccc([C@@H](CC(=O)O)C4CC4)c3)cc2OC(C)(C)Cn2cc(CCCCCCCCCCCCCC(=O)NCC[N+](C)(CCC(=O)NCCN)CCC(=O)NCCN)nn2)c1 [Example 142] | 30.7 nM | – | –
COc1ccc(F)c(-c2ccc(COc3cccc([C@@H](CC(=O)O)C4CC4)c3)cc2C(C)(C)c2cn(CCCCCCCCCC(=O)NCC[N+](C)(CCC(=O)NCCN)CCC(=O)NCCN)nn2)c1 [Example 143] | > 10000 nM | – | –
COc1ccc(F)c(-c2ccc(COc3cccc([C@@H](CC(=O)O)C4CC4)c3)cc2CC(C)(C)Cn2cc(CCCCCCCCC(=O)NCC[N+](C)(CCC(=O)NCCN)CCC(=O)NCCN)nn2)c1 [Example 144] | 5170 nM | 5170 nM | –
C[C@H](C(=O)O)[C@H](c1ccc2c(c1)O[C@@H](C1CCN(Cc3cc(-n4cc(CCCCCCCCCCCCCCCCCC(=O)NCCCN(C)CC(=O)NCCN)nn4)ccc3OC(F)(F)F)CC1)CC2)C1CC1 [Example 145] | 0.19 nM | – | –
C[C@H](C(=O)O)[C@H](c1ccc2c(c1)O[C@@H](C1CCN(Cc3cc(-n4cc(CCCCCCCCCCCCCCCCCC(=O)NCCC[N+](C)(C)CC(=O)NCCN)nn4)ccc3OC(F)(F)F)CC1)CC2)C1CC1 [Example 146] | 0.12 nM | – | –
COc1ccc(F)c(-c2ccc(COc3cccc([C@@H](CC(=O)O)C4CC4)c3)cc2CC(C)(C)Cn2cc(CCCCCCCCCCCCCCCCCC(=O)NCCCN(C)CC(=O)NCCN)nn2)c1 [Example 147] | 0.62 nM | – | –
COc1ccc(F)c(-c2ccc(COc3cccc([C@@H](CC(=O)O)C4CC4)c3)cc2CC(C)(C)Cn2cc(CCCCCCCCCCCCCCCCCC(=O)NCCC[N+](C)(C)CC(=O)NCCN)nn2)c1 [Example 148] | 0.43 nM | – | –
COc1ccc(C(=O)N(CC(C)(C)CCCCCCn2cc(CCCCCCCCCCCCCCCCCC(=O)NCCCN(C)CC(=O)NCCN)nn2)c2cccc(C)n2)c(N2CCC(COc3cc([C@@H](CC(=O)O)C4CC4)ccn3)CC2)c1 [Example 149] | 0.09 nM | – | –
COc1ccc(C(=O)N(CC(C)(C)CCn2cc(CCCCCCCCCCCCCCCCCC(=O)NCCCN(C)CC(=O)NCCN)nn2)c2cccc(C)n2)c(N2CCC(COc3cc([C@@H](CC(=O)O)C4CC4)ccn3)CC2)c1 [Example 150] | 0.07 nM | – | –
COc1ccc(C(=O)N(CC(C)(C)CCn2cc(CCCCCCCCCCCCCCCCCC(=O)NCCC[N+](C)(C)CC(=O)NCCN)nn2)c2cccc(C)n2)c(N2CCC(COc3cc([C@@H](CC(=O)O)C4CC4)ccn3)CC2)c1 [Example 151] | 0.05 nM | – | –
COc1ccc(F)c(-c2ccc(COc3cccc([C@@H](CC(=O)O)C4CC4)c3)cc2CC(C)(C)Cn2cc(CCCCCCCCCCCCCC(=O)NCCCN(CC(=O)NCCN)CC(=O)NCCN)nn2)c1 [Example 152] | 34.4 nM | – | –
COc1ccc(F)c(-c2ccc(COc3cccc([C@@H](CC(=O)O)C4CC4)c3)cc2CC(C)(C)Cn2cc(CCCCCCCCCCCCCCCC(=O)NCCCN(CC(=O)NCCN)CC(=O)NCCN)nn2)c1 [Example 153] | 6.64 nM | – | –
COc1ccc(F)c(-c2ccc(COc3cccc([C@@H](CC(=O)O)C4CC4)c3)cc2CC(C)(C)Cn2cc(CCCCCCCCCCCCCCCCCC(=O)NCCCN(CC(=O)NCCN)CC(=O)NCCN)nn2)c1 [Example 154] | 1.04 nM | – | –
COc1ccc(F)c(-c2ccc(COc3cccc([C@@H](CC(=O)O)C4CC4)c3)cc2CC(C)(C)Cn2cc(CCCCCCCCCCCCCC(=O)NCCC[N+](C)(CC(=O)NCCN)CC(=O)NCCN)nn2)c1 [Example 155] | 18.8 nM | – | –
COc1ccc(F)c(-c2ccc(COc3cccc([C@@H](CC(=O)O)C4CC4)c3)cc2CC(C)(C)Cn2cc(CCCCCCCCCCCCCCCC(=O)NCCC[N+](C)(CC(=O)NCCN)CC(=O)NCCN)nn2)c1 [Example 156] | 2.53 nM | – | –
COc1ccc(F)c(-c2ccc(COc3cccc([C@@H](CC(=O)O)C4CC4)c3)cc2CC(C)(C)Cn2cc(CCCCCCCCCCCCCCCCCC(=O)NCCC[N+](C)(CC(=O)NCCN)CC(=O)NCCN)nn2)c1 [Example 157] | 0.54 nM | – | –
COc1ccc(F)c(-c2ccc(COc3cccc([C@@H](CC(=O)O)C4CC4)c3)cc2C(C)(C)Cn2cc(CCCCCCCCCCCCCCCCCC(=O)NCC[N+](C)(CCC(=O)NCCN)CCC(=O)NCCN)nn2)c1 [Example 158] | 8.97 nM | – | –
COc1ccc(C(=O)N(CC(C)(C)CCn2cc(COCCOCCOCC(=O)NCCN(CCC(=O)NCCN)CCC(=O)NCCN)nn2)c2cccc(C)n2)c(N2CCC(COc3cc([C@@H](CC(=O)O)C4CC4)ccn3)CC2)c1 [Example 159] | > 6000 nM | – | > 6000 nM
COc1ccc(C(=O)N(CC(C)(C)CCn2cc(COCCOCCOCCOCCOCC(=O)NCCN(CCC(=O)NCCN)CCC(=O)NCCN)nn2)c2cccc(C)n2)c(N2CCC(COc3cc([C@@H](CC(=O)O)C4CC4)ccn3)CC2)c1 [Example 161] | 2200 nM | – | 2200 nM
COc1ccc(C(=O)N(CC(C)(C)CCn2cc(COCCOCCOCC(=O)NCC[N+](C)(CCC(=O)NCCN)CCC(=O)NCCN)nn2)c2cccc(C)n2)c(N2CCC(COc3cc([C@@H](CC(=O)O)C4CC4)ccn3)CC2)c1 [Example 162] | 1250 nM | – | 1250 nM
COc1ccc(C(=O)N(CC(C)(C)CCn2cc(COCCOCCOCCOCC(=O)NCC[N+](C)(CCC(=O)NCCN)CCC(=O)NCCN)nn2)c2cccc(C)n2)c(N2CCC(COc3cc(C(CC(=O)O)C4CC4)ccn3)CC2)c1 (stereo not shown) [Example 163] | > 5000 nM | – | > 5000 nM
